Assay results taken from patent US9149478B2, “Diabetes therapy” (Boehringer Ingelheim International GmbH, priority 2010, dated 2015).

Key:
[1] = in vivo; cited from earlier work
[2] = Safety and tolerability in people with type 2 diabetes
[3] = Pharmacokinetic profile of linagliptin (general statement); conditions: in vivo
[4] = system: non-obese-diabetic (NOD) mice; assay: Onset of diabetes and stereological pancreas assessment in NOD mice over 60 days; assay type: in vivo, mouse; conditions: female NOD mice
Excerpt: Though reduced pancreatic T-cell migration and altered cytokine production is considered important players for the onset of insulinitis the exact mechanism and effects on the pancreatic cell pool is still incompletely understood.
Bi-weekly plasma samples are obtained to determine onset of diabetes (BG>11 mmol/l).

[5] = Pharmacokinetics of BI 1356 after multiple oral doses once daily for 12 days in patients with type 2 diabetes; conditions: for feτ,ss: steady state (Day 12); for feτ,ss / fe0-24: gMean (gCV); for fe0-24: fraction excreted in urine

Compound | duration of action [1] | safety and tolerability [2] | half-life [3] | incidence of diabetes (BG>11 mmol/l) at the end of the study period ([4]; 0.083 g linagliptin/kg chow (3-10 mg/kg p.o.), 60 days) | beta cell mass (insulin immunoreactivity) ([4]; linagliptin in chow, 60 days, stereology) | active plasma GLP-1 at termination ([4]; linagliptin in chow, versus control) | feτ,ss ([5]; 1 mg oral once daily) | feτ,ss ([5]; 2.5 mg oral once daily) | fe0-24 ([5]; 2.5 mg oral once daily) | feτ,ss ([5]; 5 mg oral once daily) | fe0-24 ([5]; 5 mg oral once daily) | feτ,ss ([5]; 10 mg oral once daily) | fe0-24 ([5]; 10 mg oral once daily) | mean accumulation ratio RA,AUC ([5]; doses above 1 mg, oral once daily) | excreted via the kidney ([5]; therapeutic oral dose levels) | route of excretion ([5]; therapeutic oral dose levels)
N^εB29-(N^α-(ω-carboxypentadecanoyl)-L-γ-glutamyl) des(B30) human insulin [Insulin degludec] | more than 24 hours |  |  |  |  |  |  |  |  |  |  |  |  |  |  | 
CC#CCn1c(N2CCC[C@@H](N)C2)nc2c1c(=O)n(Cc1nc(C)c3ccccc3n1)c(=O)n2C [BI 1356, 1-[(4-methyl-quinazolin-2-yl)methyl]-3-methyl-7-(2-butyn-1-yl)-8-(3-(R)-amino-piperidin-1-yl)-xanthine] |  | placebo-like safety and tolerability | ≤ 72 h | 9 out of 30 | 0.48 ± 0.09 mg | higher | 3.34 (38.3) % | 3.06 (45.1) % | 0.139 (51.2) % | 6.27 (42.2) % | 0.453 (125) % | 3.22 (34.2) % | 0.919 (115) % | ≤ 1.4 | < 7 % of the administered oral dose | primarily excreted unchanged via the bile
